Test results reported in patent publication US20140288044A1, “COMPOSITIONS AND THERAPEUTIC USES OF IKK-RELATED KINASE EPSILON AND TANKBINDING KINASE 1 INHIBITORS” (Alzheimer's Institute of America, Inc., priority 2011, published 2014).
Where two headings read alike, the source gives them in different places.

Tests used:
[1] = target: T1, IKKε (Homo sapiens, UniProt Q14164); assay: In-vitro IKKε kinase assay (radiolabelled ATP, filterplate); format: biochemical
T1 construct: His-tag (in-house Sf9 preparation) or GST-tag (purchased Invitrogen preparation); these are alternatives, not both on one protein; host or cells: Sf9 cells
T1 sequence (Q14164 1-716): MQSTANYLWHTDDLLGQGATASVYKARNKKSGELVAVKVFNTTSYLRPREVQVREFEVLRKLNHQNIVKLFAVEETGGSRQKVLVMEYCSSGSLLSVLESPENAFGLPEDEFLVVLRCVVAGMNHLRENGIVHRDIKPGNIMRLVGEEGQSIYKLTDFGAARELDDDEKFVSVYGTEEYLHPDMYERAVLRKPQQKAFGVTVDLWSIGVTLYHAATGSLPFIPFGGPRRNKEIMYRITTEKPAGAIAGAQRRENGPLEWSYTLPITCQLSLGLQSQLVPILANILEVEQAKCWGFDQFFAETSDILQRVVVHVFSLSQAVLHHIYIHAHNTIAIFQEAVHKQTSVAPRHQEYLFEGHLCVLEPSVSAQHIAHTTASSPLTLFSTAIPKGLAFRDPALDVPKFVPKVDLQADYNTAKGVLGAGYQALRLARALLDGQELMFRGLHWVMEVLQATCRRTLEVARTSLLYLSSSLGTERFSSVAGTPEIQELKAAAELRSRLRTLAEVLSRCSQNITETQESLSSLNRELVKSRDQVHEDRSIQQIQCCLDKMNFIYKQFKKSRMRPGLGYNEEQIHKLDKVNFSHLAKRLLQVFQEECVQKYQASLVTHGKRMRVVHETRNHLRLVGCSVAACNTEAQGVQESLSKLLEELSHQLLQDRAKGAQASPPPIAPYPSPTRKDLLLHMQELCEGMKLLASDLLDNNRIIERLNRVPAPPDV
How it was run: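 His-tagged IKKε from Sf9 cells or GST-tagged IKKε, with myelin basic protein, casein or dephosphorylated casein as substrate and 32 μM ATP (2× Km) plus [γ^33]ATP. "Normal" assay used 0.1 μg/ml enzyme; "sensitized" used 0.015 μg/ml with dephosphorylated casein only. Stopped after 30–45 min with phosphoric acid; P-81 filter counts normalized to DMSO after background subtraction.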

[2] = system: IKKε-mediated phosphorylation of IRF3; assay: ELISA for in-situ phosphorylation of IRF3 (phospho-Ser396) in HEK293T cells cotransfected with IRF3 and IKKε; format: cell-based; details: Homo sapiens, HEK-293T, 20 h, HEK293T cells, 20 hours, read-out: IC50, in-situ IKKε-mediated phosphorylation of IRF3
Experimental: HEK293T cells were cotransfected in a 10-cm dish with IRF3 and IKKε expression plasmids using Lipofectamine 2000 (Invitrogen, Carlsbad, Calif.). The following day, cells were replated at 20,000 per well in 96-well plates and treated with test compounds (compounds according to Formulae I and/or II) for 20 hours. Cell lysates were prepared and analyzed using an ELISA for phospho-Ser396 (anti-IRF3 capture antibody, Santa Cruz Biotechnology, Inc., Santa Cruz, Calif.; anti-p-Ser396 IRF3 detection antibody, Cell Signaling, Danvers, Mass.). pIRF3 levels in compound treated cells were normalized to DMSO treated cells (no compound). Cell viability was assayed in a parallel set of plates to monitor cytotoxic effects of the test compounds (CellTiter-Glo, Promega, Inc., Madison, Wis.). TBK1 activity was tested by Western blotting using a phospho-specific IRF7 antibody. Similar to above, HEK293T cells were transfected with IRF7 and TBK1 expression plasmids. Cells were seeded in 12-well plates at 150,000 per well and treated overnight with test compounds. Protein lysates were prepared and processed for Western blotting followed by detection using a phosphor-Ser477/Ser479 IRF7 antibody (BD Biosciences, San Jose, Calif.)

[3] = "sensitized" assay, read-out: IC50, inhibition of the kinase activity of IKKε
[4] = in-vitro IKKε kinase inhibition assays, given as 0.005 μM (5 nM), read-out: IKKε kinase inhibitory activity (IC50 value)
[5] = range given from about 1 μM to about 250 nM

Structure (SMILES)	IC50 [1, 3] [nM]	IC50 [2] [nM]	IC50 [1, 4] [nM]	IC50 [2, 5] [nM]
COCCNc1cc(Nc2nccc(-c3ccc(OC4CCOCC4)c(C#N)c3)n2)ccn1 [Example Compound 193, 5-[2-({2-[(2-Methoxyethyl)amino]pyridin-4-yl}amino)pyrimidin-4-yl]-2-(tetrahydro-2H-pyran-4-yloxy)benzonitrile]	< 5	< 100		
CC(c1ccc(Nc2nccc(-c3ccc(OC4CCOCC4)c(C#N)c3)n2)cn1)N1CCOCC1 (centres unmarked) [Example Compound 252, 5-[2-({6-[1-(Morpholin-4-yl)ethyl]pyridin-3-yl}amino)pyrimidin-4-yl]-2-(tetrahydro-2H-pyran-4-yloxy)benzonitrile]	< 5	< 100		
Cn1cc(-c2cc(Nc3nccc(-c4ccc(OC5CCOCC5)c(C#N)c4)n3)ccn2)cn1 [Example Compound 82, 5-(2-{[2-(1-Methyl-1H-pyrazol-4-yl)pyridin-4-yl]amino}pyrimidin-4-yl)-2-(tetrahydro-2H-pyran-4-yloxy)benzonitrile]	< 5	< 100	< 5	
N#Cc1cc(-c2ccnc(Nc3ccc(N4CCCC4)nc3)n2)ccc1OC1CCOCC1 [Example Compound 5, 5-(2-{[6-(Pyrrolidin-1-yl)pyridin-3-yl]amino}pyrimidin-4-yl)-2-(tetrahydro-2H-pyran-4-yloxy)benzonitrile]	< 5	100 to 250	< 5	
N#Cc1cc(-c2ccnc(Nc3ccc(C(=O)N4CCCC4)nc3)n2)ccc1OC1CCN(C(=O)CO)CC1 [Example Compound 232, 2-{[1-(Hydroxyacetyl)piperidin-4-yl]oxy}-5-(2-{[6-(pyrrolidin-1-ylcarbonyl)pyridin-3-yl]amino}pyrimidin-4-yl)benzonitrile]	< 5	100 to 250		
N#Cc1cc(-c2ccnc(Nc3ccc(C(=O)N4CCCC4)nc3)n2)ccc1OC1CCOCC1 [Example Compound 29, 5-(2-{[6-(Pyrrolidin-1-ylcarbonyl)pyridin-3-yl]amino}pyrimidin-4-yl)-2-(tetrahydro-2H-pyran-4-yloxy)benzonitrile]	< 5	100 to 250	< 5	
N#Cc1cc(-c2ccnc(Nc3ccc(-n4cncn4)nc3)n2)ccc1OC1CCOCC1 [Example Compound 76, 2-(Tetrahydro-2H-pyran-4-yloxy)-5-(2-{[6-(1H-1,2,4-triazol-1-yl)pyridin-3-yl]amino}pyrimidin-4-yl)benzonitrile]	< 5	100 to 250	< 5	
CC(O)c1ccc(Nc2nccc(-c3ccc(OC4CCOCC4)c(C#N)c3)n2)cn1 (centres unmarked) [Example Compound 231, 5-(2-{[6-(1-Hydroxyethyl)pyridin-3-yl]amino}pyrimidin-4-yl)-2-(tetrahydro-2H-pyran-4-yloxy)benzonitrile]	< 5	100 to 250		
COc1cc(Nc2nccc(-c3ccc(O[C@@H]4CCN(C(=O)CO)C4)c(C#N)c3)n2)ccn1 [Example Compound 225, 2-{[(3R)-1-(Hydroxyacetyl)pyrrolidin-3-yl]oxy}-5-{2-[(2-methoxypyridin-4-yl)amino]pyrimidin-4-yl}benzonitrile]	< 5	1000 to 5000		
COC(=O)c1cc(Nc2nccc(-c3ccc(OC4CCOCC4)c(C#N)c3)n2)ccn1 [Example Compound 230, Methyl 4-({4-[3-cyano-4-(tetrahydro-2H-pyran-4-yloxy)phenyl]pyrimidin-2-yl}amino)pyridine-2-carboxylate]	< 5	100 to 250		
Cc1ccc(Nc2nccc(-c3ccc(OC4CCN(C(=O)[C@H](C)O)CC4)c(C#N)c3)n2)cn1 [Example Compound 128, 2-({1-[(2S)-2-Hydroxypropanoyl]piperidin-4-yl}oxy)-5-{2-[(6-methylpyridin-3-yl)amino]pyrimidin-4-yl}benzonitrile]	< 5	1000 to 5000	< 5	
CN(Cc1ccc(Nc2nccc(-c3ccc(OC4CCOCC4)c(C#N)c3)n2)cn1)C(=O)C1(O)CC1 [Example Compound 59, N-{[5-({4-[3-Cyano-4-(tetrahydro-2H-pyran-4-yloxy)phenyl]pyrimidin-2-yl}amino)pyridin-2-yl]methyl}-1-hydroxy-N-methylcyclopropanecarboxamide]			< 5	250 to 1000
C[C@@H](O)C(=O)N(C)Cc1ccc(Nc2nccc(-c3ccc(OC4CCOCC4)c(C#N)c3)n2)cn1 [Example Compound 57, (2R)—N-{[5-({4-[3-Cyano-4-(tetrahydro-2H-pyran-4-yloxy)phenyl]pyrimidin-2-yl}amino)pyridin-2-yl]methyl}-2-hydroxy-N-methylpropanamide]			< 5	250 to 1000
CN(Cc1ccc(Nc2nccc(-c3ccc(OC4CCOCC4)c(C#N)c3)n2)cn1)C(=O)C(C)(C)O [Example Compound 205, N-{[5-({4-[3-Cyano-4-(tetrahydro-2H-pyran-4-yloxy)phenyl]pyrimidin-2-yl}amino)pyridin-2-yl]methyl}-2-hydroxy-N,2-dimethylpropanamide]	< 5	< 100		
N#Cc1cc(-c2ccnc(Nc3ccnc(CO)c3)n2)ccc1OC1CCOCC1 [Example Compound 227, 5-(2-{[2-(Hydroxymethyl)pyridin-4-yl]amino}pyrimidin-4-yl)-2-(tetrahydro-2H-pyran-4-yloxy)benzonitrile]	< 5	< 100		
CCN(CC)c1ccc(Nc2nccc(-c3ccc(NC(=O)C4CC4)c(C#N)c3)n2)cn1 [Example Compound 139, N-[2-Cyano-4-(2-{[6-(diethylamino)pyridin-3-yl]amino}pyrimidin-4-yl)phenyl]cyclopropanecarboxamide]	< 5		< 5	250 to 1000
COCCOC1CN(c2cc(Nc3nccc(-c4ccc(OC5CCOCC5)c(C#N)c4)n3)ccn2)C1 [Example Compound 45, 5-[2-({2-[3-(2-Methoxyethoxy)azetidin-1-yl]pyridin-4-yl}amino)pyrimidin-4-yl]-2-(tetrahydro-2H-pyran-4-yloxy)benzonitrile]	< 5	100 to 250	< 5	
N#Cc1cc(-c2ccnc(Nc3ccnc(N4CCOCC4)c3)n2)ccc1OC1CCOCC1 [Example Compound 44, 5-(2-{[2-(Morpholin-4-yl)pyridin-4-yl]amino}pyrimidin-4-yl)-2-(tetrahydro-2H-pyran-4-yloxy)benzonitrile]	< 5	< 100	< 5	
N#Cc1cc(-c2ccnc(Nc3ccnc(CN4CC(O)C4)c3)n2)ccc1OC1CCOCC1 [Example Compound 70, 5-[2-({2-[(3-Hydroxyazetidin-1-yl)methyl]pyridin-4-yl}amino)pyrimidin-4-yl]-2-(tetrahydro-2H-pyran-4-yloxy)benzonitrile]			< 5	250 to 1000
COCCNCc1cncc(Nc2nccc(-c3ccc(OC4CCOCC4)c(C#N)c3)n2)c1 [Example Compound 184, 5-{2-[(5-{[(2-Methoxyethyl)amino]methyl}pyridin-3-yl)amino]pyrimidin-4-yl}-2-(tetrahydro-2H-pyran-4-yloxy)benzonitrile]	< 5	100 to 250		
CN(CCS(C)(=O)=O)Cc1ccc(Nc2nccc(-c3ccc(OC4CCOCC4)c(C#N)c3)n2)cn1 [Example Compound 54, 5-(2-{[6-({Methyl[2-(methylsulfonyl)ethyl]amino}methyl)pyridin-3-yl]amino}pyrimidin-4-yl)-2-(tetrahydro-2H-pyran-4-yloxy)benzonitrile]		100 to 250	< 5	
